{"source": "ChEMBL document CHEMBL2417399", "about": "“Discovery of highly potent and selective D4 ligands by interactive SAR study” (Bioorg Med Chem Lett, 2013)", "key": {"D(4) dopamine receptor": {"target": "T1, D(4) dopamine receptor (Homo sapiens, UniProt P21917)", "T1 sequence (P21917 whole entry)": "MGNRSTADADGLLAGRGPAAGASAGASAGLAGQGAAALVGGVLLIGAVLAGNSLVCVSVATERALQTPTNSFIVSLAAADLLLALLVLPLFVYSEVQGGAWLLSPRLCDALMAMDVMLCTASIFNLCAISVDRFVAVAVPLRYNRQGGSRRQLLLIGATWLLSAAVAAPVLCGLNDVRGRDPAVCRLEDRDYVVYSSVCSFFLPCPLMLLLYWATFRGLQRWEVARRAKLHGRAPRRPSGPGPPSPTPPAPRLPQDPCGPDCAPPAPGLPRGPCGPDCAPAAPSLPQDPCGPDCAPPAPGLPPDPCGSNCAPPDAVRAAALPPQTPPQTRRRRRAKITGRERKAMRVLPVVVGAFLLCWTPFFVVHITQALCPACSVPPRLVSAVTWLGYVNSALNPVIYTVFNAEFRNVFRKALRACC", "test": "Binding affinity to human dopamine D4 receptor by radioligand binding assay"}, "D(3) dopamine receptor": {"target": "D(3) dopamine receptor (Homo sapiens, UniProt P35462)", "sequence (P35462 whole entry)": "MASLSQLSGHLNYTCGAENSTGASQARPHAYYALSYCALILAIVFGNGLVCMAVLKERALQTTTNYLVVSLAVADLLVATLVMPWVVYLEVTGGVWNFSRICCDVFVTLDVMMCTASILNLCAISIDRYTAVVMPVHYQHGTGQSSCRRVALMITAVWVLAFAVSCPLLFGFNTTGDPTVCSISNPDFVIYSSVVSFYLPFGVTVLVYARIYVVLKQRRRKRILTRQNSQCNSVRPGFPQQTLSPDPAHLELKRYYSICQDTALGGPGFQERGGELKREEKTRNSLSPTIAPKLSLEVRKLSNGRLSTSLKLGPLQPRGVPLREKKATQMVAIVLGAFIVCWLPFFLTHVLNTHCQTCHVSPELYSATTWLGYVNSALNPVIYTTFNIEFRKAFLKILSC", "test": "Binding affinity to human dopamine D3 receptor by radioligand binding assay"}, "D(1A) dopamine receptor": {"target": "D(1A) dopamine receptor (Homo sapiens, UniProt P21728)", "sequence (P21728 whole entry)": "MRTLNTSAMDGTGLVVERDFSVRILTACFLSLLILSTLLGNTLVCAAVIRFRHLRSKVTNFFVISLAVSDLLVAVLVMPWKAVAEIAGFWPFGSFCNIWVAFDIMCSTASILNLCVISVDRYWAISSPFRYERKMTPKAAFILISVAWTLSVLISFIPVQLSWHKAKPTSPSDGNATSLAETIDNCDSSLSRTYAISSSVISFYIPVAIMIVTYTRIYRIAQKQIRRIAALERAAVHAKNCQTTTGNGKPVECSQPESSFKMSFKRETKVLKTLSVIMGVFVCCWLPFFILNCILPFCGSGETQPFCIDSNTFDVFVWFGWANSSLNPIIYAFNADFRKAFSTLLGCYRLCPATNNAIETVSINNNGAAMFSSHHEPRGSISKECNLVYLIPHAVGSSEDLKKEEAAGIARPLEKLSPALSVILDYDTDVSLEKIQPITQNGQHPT", "test": "Displacement of [3H]SCH23390 from human dopamine D1 receptor"}, "D(2) dopamine receptor": {"target": "D(2) dopamine receptor (Homo sapiens, UniProt P14416)", "sequence (P14416 whole entry)": "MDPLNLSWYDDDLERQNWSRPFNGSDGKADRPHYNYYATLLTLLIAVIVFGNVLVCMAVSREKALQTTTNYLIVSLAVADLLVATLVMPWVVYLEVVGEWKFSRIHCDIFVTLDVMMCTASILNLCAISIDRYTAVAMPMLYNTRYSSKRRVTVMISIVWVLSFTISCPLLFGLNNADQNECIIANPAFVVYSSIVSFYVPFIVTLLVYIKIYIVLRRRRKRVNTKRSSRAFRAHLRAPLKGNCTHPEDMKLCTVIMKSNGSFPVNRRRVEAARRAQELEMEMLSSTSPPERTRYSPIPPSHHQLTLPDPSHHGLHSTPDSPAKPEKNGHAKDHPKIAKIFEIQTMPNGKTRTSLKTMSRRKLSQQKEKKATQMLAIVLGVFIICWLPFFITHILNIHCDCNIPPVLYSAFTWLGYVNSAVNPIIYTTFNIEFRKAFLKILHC", "test": "Displacement of [3H]spiperone from human dopamine D2 receptor"}, "D(1B) dopamine receptor": {"target": "D(1B) dopamine receptor (Homo sapiens, UniProt P21918)", "sequence (P21918 whole entry)": "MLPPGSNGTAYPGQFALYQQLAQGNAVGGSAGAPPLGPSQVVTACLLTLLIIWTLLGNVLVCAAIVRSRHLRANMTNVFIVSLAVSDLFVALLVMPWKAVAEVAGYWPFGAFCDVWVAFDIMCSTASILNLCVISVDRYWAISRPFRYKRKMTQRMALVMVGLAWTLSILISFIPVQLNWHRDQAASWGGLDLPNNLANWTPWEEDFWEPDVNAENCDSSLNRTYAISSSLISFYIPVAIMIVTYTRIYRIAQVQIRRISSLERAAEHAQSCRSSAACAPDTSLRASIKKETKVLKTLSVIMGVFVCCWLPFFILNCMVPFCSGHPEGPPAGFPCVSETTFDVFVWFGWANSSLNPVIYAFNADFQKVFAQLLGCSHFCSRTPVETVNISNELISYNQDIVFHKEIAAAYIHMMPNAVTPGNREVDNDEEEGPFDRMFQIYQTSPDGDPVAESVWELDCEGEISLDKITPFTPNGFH", "test": "Binding affinity to human dopamine D5 receptor by radioligand binding assay"}, "Homo sapiens": {"organism": "Homo sapiens", "test": "Selectivity ratio of Ki for human dopamine D2 receptor to Ki for human dopamine D4 receptor"}}, "note": "pKi: −log10 of the molar value."}
{"smiles": "Clc1cccc(N2CCN(Cc3cccc4ccccc34)CC2)c1Cl", "values": [{"measurement": "pKi", "setting": "D(4) dopamine receptor", "result": 7.51}, {"measurement": "pKi", "setting": "D(3) dopamine receptor", "result": 7.04}, {"measurement": "pKi", "setting": "D(1A) dopamine receptor", "result": "< 5.00"}, {"measurement": "pKi", "setting": "D(2) dopamine receptor", "result": 6.45}, {"measurement": "pKi", "setting": "D(1B) dopamine receptor", "result": "< 5.00"}]}
{"smiles": "CCOc1ccccc1N1CCN(Cc2csc3ccccc23)CC1", "values": [{"measurement": "pKi", "setting": "D(4) dopamine receptor", "result": 8.35}, {"measurement": "pKi", "setting": "D(3) dopamine receptor", "result": 7.35}, {"measurement": "pKi", "setting": "D(1A) dopamine receptor", "result": "< 5.00"}, {"measurement": "pKi", "setting": "D(2) dopamine receptor", "result": 6.66}, {"measurement": "pKi", "setting": "D(1B) dopamine receptor", "result": "< 5.00"}]}
{"smiles": "Clc1ccc(N2CCN(Cc3cc4ccccn4n3)CC2)cc1", "values": [{"measurement": "pKi", "setting": "D(4) dopamine receptor", "result": 8.51}, {"measurement": "pKi", "setting": "D(3) dopamine receptor", "result": 5.30}, {"measurement": "pKi", "setting": "D(2) dopamine receptor", "result": 5.49}]}
{"smiles": "Clc1cccc(N2CCN(Cc3cccnc3)CC2)c1Cl", "values": [{"measurement": "pKi", "setting": "D(4) dopamine receptor", "result": 8.36}, {"measurement": "pKi", "setting": "D(3) dopamine receptor", "result": 7.39}, {"measurement": "pKi", "setting": "D(1A) dopamine receptor", "result": "< 5.00"}, {"measurement": "pKi", "setting": "D(2) dopamine receptor", "result": 6.49}, {"measurement": "pKi", "setting": "D(1B) dopamine receptor", "result": "< 5.00"}]}
{"smiles": "CCOc1ccccc1N1CCN(Cc2cccc3ccccc23)CC1", "values": [{"measurement": "pKi", "setting": "D(4) dopamine receptor", "result": 8.70}, {"measurement": "pKi", "setting": "D(3) dopamine receptor", "result": 7.23}, {"measurement": "pKi", "setting": "D(1A) dopamine receptor", "result": "< 5.00"}, {"measurement": "pKi", "setting": "D(2) dopamine receptor", "result": 6.58}, {"measurement": "pKi", "setting": "D(1B) dopamine receptor", "result": "< 5.00"}]}
{"smiles": "Clc1cccc(N2CCN(Cc3csc4ccccc34)CC2)c1Cl", "values": [{"measurement": "pKi", "setting": "D(4) dopamine receptor", "result": 7.65}, {"measurement": "pKi", "setting": "D(3) dopamine receptor", "result": 7.28}, {"measurement": "pKi", "setting": "D(1A) dopamine receptor", "result": "< 5.00"}, {"measurement": "pKi", "setting": "D(2) dopamine receptor", "result": 6.42}, {"measurement": "pKi", "setting": "D(1B) dopamine receptor", "result": "< 5.00"}]}
{"smiles": "CCOc1ccccc1N1CCN(Cc2c[nH]c3ccccc23)CC1", "values": [{"measurement": "pKi", "setting": "D(4) dopamine receptor", "result": 10.52}, {"measurement": "pKi", "setting": "D(3) dopamine receptor", "result": 6.99}, {"measurement": "pKi", "setting": "D(1A) dopamine receptor", "result": "< 5.00"}, {"measurement": "pKi", "setting": "D(2) dopamine receptor", "result": 6.33}, {"measurement": "pKi", "setting": "D(1B) dopamine receptor", "result": "< 5.00"}]}
{"smiles": "CCOc1ccccc1N1CCN(Cc2cccs2)CC1", "values": [{"measurement": "pKi", "setting": "D(4) dopamine receptor", "result": 8.41}, {"measurement": "pKi", "setting": "D(3) dopamine receptor", "result": 6.95}, {"measurement": "Ratio Ki", "setting": "Homo sapiens", "result": 14}, {"measurement": "pKi", "setting": "D(1A) dopamine receptor", "result": "< 5.00"}, {"measurement": "pKi", "setting": "D(2) dopamine receptor", "result": 6.79}, {"measurement": "pKi", "setting": "D(1B) dopamine receptor", "result": "< 5.00"}]}
{"smiles": "Clc1cccc(N2CCN(Cc3c[nH]c4ccccc34)CC2)c1Cl", "values": [{"measurement": "pKi", "setting": "D(4) dopamine receptor", "result": 8.21}, {"measurement": "pKi", "setting": "D(3) dopamine receptor", "result": 6.91}, {"measurement": "pKi", "setting": "D(1A) dopamine receptor", "result": "< 5.00"}, {"measurement": "pKi", "setting": "D(1B) dopamine receptor", "result": "< 5.00"}]}
{"smiles": "CCOc1ccccc1N1CCN(Cc2cccnc2)CC1", "values": [{"measurement": "pKi", "setting": "D(4) dopamine receptor", "result": 9.15}, {"measurement": "pKi", "setting": "D(3) dopamine receptor", "result": 7.38}, {"measurement": "pKi", "setting": "D(1A) dopamine receptor", "result": "< 5.00"}, {"measurement": "pKi", "setting": "D(2) dopamine receptor", "result": 6.59}, {"measurement": "pKi", "setting": "D(1B) dopamine receptor", "result": "< 5.00"}]}
